Reference: patent US6566373B2, “Protease inhibitors” (SmithKline Beecham Corporation, priority 1997, dated 2003)
Counter-ions that a name gives are not always drawn.

Key:
cathepsin K = target: T1, cathepsin K (Homo sapiens, UniProt P43235); assay: Cathepsin K inhibition (progress curve method, fluorogenic substrate Cbz-Phe-Arg-AMC); assay type: biochemical; conditions: human recombinant enzyme, 100 mM Na acetate pH 5.5
T1 sequence (P43235 115-329): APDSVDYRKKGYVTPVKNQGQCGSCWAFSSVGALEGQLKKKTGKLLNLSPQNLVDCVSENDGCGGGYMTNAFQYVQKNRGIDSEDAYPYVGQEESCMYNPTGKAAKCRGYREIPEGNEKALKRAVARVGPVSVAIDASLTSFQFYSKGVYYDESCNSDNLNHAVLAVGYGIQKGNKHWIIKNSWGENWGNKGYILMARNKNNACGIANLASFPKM
Method: Determination of Cathepsin K Proteolytic Catalytic Activity
All assays for cathepsin K were carried out with human recombinant enzyme. Standard assay conditions for the determination of kinetic constants used a fluorogenic peptide substrate, typically Cbz-Phe-Arg-AMC, and were determined in 100 mM Na acetate at pH 5.5 containing 20 mM cysteine and 5 mM EDTA. Stock substrate solutions were prepared at concentrations of 10 or 20 mM in DMSO with 20 μM final substrate concentration in the assays. All assays contained 10% DMSO. […] All assays were conducted at ambient temperature. Product fluorescence (excitation at 360 nm; emission at 460 nm) was monitored with a Perceptive Biosystems Cytofluor II fluorescent plate reader. […]
Potential inhibitors were evaluated using the progress curve method. […] For those compounds whose progress curves were linear, apparent inhibition constants (Ki,app) were calculated according to equation 1 (Brandt et al., Biochemitsry, 1989, 28, 140): […]
[AMC]=vSSt+(v0−vSS)[1−exp (−kobst)]/kobs (2) where [AMC] is the concentration of product formed over time t, v0 is the initial reaction velocity, and vSS is the final steady state rate. Values for kobs were then analyzed as a linear function of inhibitor concentration to generate an apparent second order rate constant (kobs/inhibitor concentration or kobs/[I]) describing the time-dependent inhibition. […]

melting point [°C]	Ki (cathepsin K) [µM]	Compound
98	–	CC(C)C[C@H](NS(=O)(=O)c1cccc2cccnc12)C(=O)NC1COCC1=O (mixture of isomers) (as salt: HCl) [Example 7, 4-(R,S)-Amino-N-[(8-quinolinesulfonyl)-S-leucine]-tetrahydrofuran-3-one]
–	> 10	CC(C)C[C@H](NS(=O)(=O)c1cccc2cccnc12)C(=O)NC1COCC1=O (mixture of isomers) [Example 7, 4-(R,S)-Amino-N-[(8-quinolinesulfonyl)-S-leucine]-tetrahydrofuran-3-one]
